In article doi:10.1101/2024.10.01.616164v1 (biorxiv, 2024):
Where a name gives a salt, the structure may show the parent alone.

What was measured:
LON-1 [1] = target: T1, LON-1 (Caenorhabditis elegans, UniProt Q09566); assay: microscale thermophoresis; assay type: binding
T1 sequence (Q09566 24-312): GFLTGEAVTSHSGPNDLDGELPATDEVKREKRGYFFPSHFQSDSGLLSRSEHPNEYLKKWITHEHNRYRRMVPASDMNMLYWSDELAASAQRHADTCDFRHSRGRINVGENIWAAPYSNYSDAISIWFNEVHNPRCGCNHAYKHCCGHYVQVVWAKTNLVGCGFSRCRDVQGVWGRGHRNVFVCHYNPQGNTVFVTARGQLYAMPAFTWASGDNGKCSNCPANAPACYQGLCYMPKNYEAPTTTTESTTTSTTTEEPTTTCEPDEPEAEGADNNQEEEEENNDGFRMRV

LON-1 [2] = target: LON-1 (Caenorhabditis elegans, UniProt Q09566, V175A); assay: biochemical
Sequence of LON-1 (Caenorhabditis elegans, UniProt Q09566, V175A) (Q09566 24-312 V175A): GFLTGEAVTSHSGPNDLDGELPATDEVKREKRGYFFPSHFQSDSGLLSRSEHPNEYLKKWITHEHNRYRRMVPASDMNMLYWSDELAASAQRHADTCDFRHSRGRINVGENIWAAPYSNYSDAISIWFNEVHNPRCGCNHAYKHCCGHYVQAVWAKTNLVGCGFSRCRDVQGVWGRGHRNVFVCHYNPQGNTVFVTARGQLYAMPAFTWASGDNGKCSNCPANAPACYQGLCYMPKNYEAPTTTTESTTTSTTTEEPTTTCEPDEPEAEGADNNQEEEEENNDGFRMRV

LON-1 [3] = target: LON-1 (Caenorhabditis elegans, UniProt Q09566, C207S); assay: biochemical
Sequence of LON-1 (Caenorhabditis elegans, UniProt Q09566, C207S) (Q09566 24-312 C207S): as the sequence (Q09566 24-312 V175A) above, with A152V, C184S counted along it

LON-1 [4] = target: LON-1 (Caenorhabditis elegans, UniProt Q09566, C185Y); assay: biochemical
Sequence of LON-1 (Caenorhabditis elegans, UniProt Q09566, C185Y) (Q09566 24-312 C185Y): as the sequence (Q09566 24-312 V175A) above, with A152V, C162Y counted along it

LON-1 [5] = target: LON-1 (Caenorhabditis elegans, UniProt Q09566, E153A); assay: biochemical
Sequence of LON-1 (Caenorhabditis elegans, UniProt Q09566, E153A) (Q09566 24-312 E153A): as the sequence (Q09566 24-312 V175A) above, with E130A, A152V counted along it

## CCCCCCCCCCCCCCCC(=O)O [palmitic acid]
LON-1 [1]
  Kd: ~430 µM

## CC(C)CCC[C@@H](C)[C@H]1CC[C@H]2[C@@H]3CC=C4C[C@@H](OS(=O)(=O)O)CC[C@]4(C)[C@H]3CC[C@]12C [cholesterol sulfate]
LON-1 [1]
  Kd: ~19 µM
LON-1 [2]
  Kd: 76 ± 24 µM
LON-1 [3]
  Kd: 332 ± 145 µM
LON-1 [4]
  Kd: 261 ± 92 µM
LON-1 [5]
  Kd: 26 ± 8 µM
